The record followed here is patent US20240208901A1, “Deuterated 3,3'-Diselenodipropionic Acid (DSePA) and Its Use as an Anticancer or Radioprotective Agent” (Secretary, Department of Atomic Energy, priority 2022, published 2024).

One assay has as its system A549 cells. In words: MTT assay, anti-proliferative effect in A549 cells. In kind it is cell-based, human. The settings on record: Homo sapiens, 48 h treatment, read-out: IC50 to inhibit cell proliferation. On the procedure: (§1) Therefore, D-DSePA was compared with un-deuterated DSePA for its anticancer activity in A549, H1975 and H3122 cell lines which are representative of NSCLC. For this, above cells were treated with the varying concentrations (0.1-100 μM) of DSePA/D-DSePA for 48 h and the cell viability was determined by MTT assay (FIG. 9A-C). The plot of percent (%) cytotoxicity (100-% viability) versus the concentration of DSePA/D-DSePA was used to estimate the half maximum concentration (IC50) of above compounds to inhibit the proliferation of cells. […] Employing these values, the therapeutic index (IC50 in normal lung cell/IC50 in lung cancer cell) of DSePA and D-DSePA in different pairs of normal versus cancerous cells (viz., A549/WI-38, A549/WI-26 VA4, H1975/WI-38, H1975/WI-26 VA4, H3122/WI-38 and H3122/WI-26 VA4) was calculated (Table-3). […]
(§2) MTT Assay—To evaluate the anti-proliferative effect of D-DScPA and DScPA, Cells (˜5×10^3) suspended in 100 μl of complete culture medium were seeded in each well of 96 well plates. […] The percentage (%) cytotoxicity was calculated from the decrease in absorbance at 570 nm of treated groups as compared to that of control group. […] The therapeutic index was calculated by normalizing the IC50 concentration of D-DSePA/DSePA in non-cancerous cells to that in cancerous cells.

A further assay has as its system H3122 cells. Nature of the assay: MTT assay, anti-proliferative effect in H3122 cells. The class given is cell-based, human. The conditions noted are these: Homo sapiens, NCI-H3122, 48 h treatment, read-out: IC50 to inhibit cell proliferation. On the procedure:
as §1, §2

The structures appear in SMILES notation.

On to `O=C(O)CC[Se][Se]CCC(=O)O` [DSePA, 3,3′-diselenodipropionic acid], for which the IC50 with A549 cells stood at 15.2 ± 1 µM; in the assay with H3122 cells, 21.5 ± 1.2 µM.
